Measurements: the supplement of paper PMC9763283
Counter-ions that a name gives are not always drawn.

Key:
Experiment in all cases: area under growth-rate inhibition curve (AUC GRI) (dimensionless (GR-based AUC)); higher = less growth inhibition
Conditions in all cases: exposure time: 72 h; concentrations: 0.1, 1, 10 uM
BT474-LTR = test system: BT474-LTR
Summary of the method: (§1)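 The area under the growth-rate inhibition curve was measured in six breast cancer cell line models, covering triple-negative lines and HER2+ lines, both parental and resistant to a two-drug combination. Cells were exposed to compound at 0.1, 1 or 10 µM for 72 h, fixed in 4% paraformaldehyde, and nuclei were stained with Hoechst 33342 or DAPI for imaging and counting. Day 0 plates, untreated Day 3 plates and DMSO controls served to correct growth across 2 biological replicates.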

BT474-P = test system: BT474-P
Summary of the method: as §1

MDA-MB-231 = test system: MDA-MB-231
Summary of the method: as §1

MDA-MB-468 = test system: MDA-MB-468
Summary of the method: as §1

SKBR3-LTR = test system: SKBR3-LTR
Summary of the method: as §1

SKBR3-P = test system: SKBR3-P
Summary of the method: as §1

Compound | area under growth-rate inhibition curve (BT474-LTR) | area under growth-rate inhibition curve (BT474-P) | area under growth-rate inhibition curve (MDA-MB-231) | area under growth-rate inhibition curve (MDA-MB-468) | area under growth-rate inhibition curve (SKBR3-LTR) | area under growth-rate inhibition curve (SKBR3-P)
CN(C)CC(c1ccc(O)cc1)C1(O)CCCCC1 (configuration not stated) [Desvenlafaxine] | 1.07 | 1.03 | 1 | 1.03 | 1.05 | 1
O=C(NCC1CCOCC1)c1cnc(Nc2ccc(Cl)cc2Cl)nc1C(F)(F)F | 1.04 | 0.983 | 1 | 1.01 | 1.05 | 1.02
C[C@]12CC[C@@H]3c4ccc(O)cc4CC[C@H]3[C@@H]1C[C@@H](O)[C@@H]2O [Estriol] | 1.01 | 0.979 | 0.988 | 0.987 | 1.01 | 0.989
C[N+]1(C)C2CC(OC(=O)C(CO)c3ccccc3)CC1C1OC12.[Br-] (configuration not stated) [Methscopolamine] | 1.1 | 1.05 | 1.03 | 1.04 | 1.04 | 1.02
CCCCCCCCOc1ccccc1C(=O)Nc1ccc(C(=O)OCC[N+](C)(CC)CC)cc1.[Br-] [Otilonium Bromide] | 1.07 | 0.939 | 1.04 | 0.947 | 1.01 | 1
CCc1cc2c(cc1CC)CC(NC[C@H](O)c1ccc(O)c3[nH]c(=O)ccc13)C2.O=C(O)/C=C\C(=O)O [Indacaterol Maleate] | 1 | 0.978 | 0.903 | 0.93 | 1.01 | 0.955
Br.Cc1ccc(Sc2ccccc2N2CCNCC2)c(C)c1 | 0.912 | 0.865 | 0.879 | 0.885 | 0.929 | 0.872
CCOc1cc(N)c(Cl)cc1C(=O)NCC1CN(Cc2ccc(F)cc2)CCO1.O=C(O)CC(O)(CC(=O)O)C(=O)O (configuration not stated) [Mosapride Citrate] | 1.09 | 1.04 | 1.03 | 1.02 | 1.02 | 1.01
CN[C@H](CC(=O)O)C(=O)O [NMDA (N-Methyl-D-aspartic acid)] | 1.09 | 1.08 | 1.04 | 1.04 | 1.08 | 1.07
Cc1cccc(C)c1NC(=O)CN1CCCC1=O [Nefiracetam] | 1.06 | 1.05 | 1.02 | 1.03 | 1.03 | 1
Cl.NCc1cnc(S)n1C1CCc2c(F)cc(F)cc2C1 (stereo not drawn) [Nepicastat (SYN-117) HCl] | 1.08 | 1.03 | 1.01 | 1 | 1.07 | 1.02
CC[C@@H](CO)NC(=O)[C@@H]1C=C2c3cccc4[nH]cc(c34)C[C@H]2N(C)C1.O=C(O)/C=C\C(=O)O [Methylergometrine maleate] | 1.05 | 1.01 | 1.03 | 1.06 | 1.05 | 1.04
COc1cc(NC(=O)c2ccccn2)ccc1Cl | 1.07 | 1.01 | 1.05 | 1.01 | 1.05 | 0.979
Cl.c1ccc2c(CC3=NCCN3)cccc2c1 [Naphazoline HCl] | 1.11 | 1.04 | 1.05 | 1.03 | 1.07 | 1.02
CCCNS(=O)(=O)Nc1ncnc(OCCOc2ncc(Br)cn2)c1-c1ccc(Br)cc1 [Macitentan] | 1.01 | 0.957 | 1.02 | 1.02 | 1.02 | 1.02
NCC(=O)O [Glycine] | 1.05 | 1.03 | 1.04 | 1.03 | 1.06 | 1.03
O=C(O)C=CC(=O)O.OCCOCCN1CCN(C2=Nc3ccccc3Sc3ccccc32)CC1.OCCOCCN1CCN(C2=Nc3ccccc3Sc3ccccc32)CC1 [Quetiapine Fumarate] | 1.07 | 1.03 | 1.02 | 1.02 | 1.07 | 1.04
N#Cc1cc(CN2CCC(Nc3ncnc4sc(Cl)cc34)CC2)ccc1F.O=C(O)/C=C\C(=O)O | 0.875 | 0.879 | 0.988 | 0.885 | 0.964 | 0.839
CCCN1C[C@H](CSC)C[C@@H]2c3cccc4[nH]cc(c34)C[C@H]21.CS(=O)(=O)O [Pergolide mesylate] | 1.06 | 1.02 | 1.02 | 1.02 | 1.02 | 0.978
CC(C)N(CCC(c1ccccc1)c1cc(CO)ccc1O)C(C)C (configuration not stated) | 1.06 | 1.04 | 1.03 | 1.04 | 1.03 | 0.957
CN1CC(C(=O)NC2(C)OC3(O)C4CCCN4C(=O)C(Cc4ccccc4)N3C2=O)C=C2c3cccc4[nH]cc(c34)CC21 (configuration not stated) [ergotamine] | 1.03 | 1.01 | 1.03 | 1 | 1.06 | 1.02
CCOc1ccc(Cc2cc([C@@H]3O[C@H](SC)[C@@H](O)[C@H](O)[C@H]3O)ccc2Cl)cc1 [Sotagliflozin (LX4211)] | 1.06 | 1.02 | 1.01 | 0.996 | 1.1 | 1.02
CC(=O)OC1CC2CCC3C(CCC4(C)C3CC([N+]3(C)CCCCC3)C4OC(C)=O)C2(C)CC1[N+]1(C)CCCCC1.[Br-].[Br-] (configuration not stated) [Pancuronium dibromide] | 1.06 | 1.01 | 1 | 1.01 | 0.978 | 0.989
O=C(c1ccc(OCCN2CCCCC2)cc1)c1c(-c2ccc(O)cc2)sc2cc(O)ccc12.[Cl-].[H+] [Raloxifene HCl] | 0.931 | 0.82 | 0.957 | 0.931 | 0.996 | 0.996
OCCN(CCO)c1nc(N2CCCCC2)c2nc(N(CCO)CCO)nc(N3CCCCC3)c2n1 [Dipyridamole] | 1.12 | 1.04 | 0.97 | 0.962 | 1.05 | 1.05
CC(=O)O[C@]1(C(C)=O)CC[C@H]2[C@@H]3C[C@H](C)C4=CC(=O)CC[C@]4(C)[C@H]3CC[C@@]21C [Medroxyprogesterone acetate] | 1.02 | 0.945 | 1.03 | 1 | 1.01 | 0.953

Compound | area under growth-rate inhibition curve (BT474-LTR) | area under growth-rate inhibition curve (BT474-P) | area under growth-rate inhibition curve (MDA-MB-231) | area under growth-rate inhibition curve (MDA-MB-468) | area under growth-rate inhibition curve (SKBR3-LTR) | area under growth-rate inhibition curve (SKBR3-P)
O=c1[nH]c2ccccc2n1CCCN1CCC(n2c(=O)[nH]c3cc(Cl)ccc32)CC1 [Domperidone] | 1 | 0.993 | 1.01 | 0.926 | 1.04 | 0.962
O=C(O[C@H]1C[C@H]2CC[C@@H](C1)[N+]21CCCC1)C(O)(c1ccccc1)c1ccccc1.[Cl-] [Trospium chloride] | 1.11 | 1.06 | 1.04 | 1.06 | 1.09 | 1
CN1CCCC1Cc1c[nH]c2ccc(CCS(=O)(=O)c3ccccc3)cc12.[Br-].[H+] (configuration not stated) [Eletriptan HBr] | 1.14 | 1.03 | 1.04 | 1.02 | 1.03 | 1.01
CN(C)CCC(c1ccc(Cl)cc1)c1ccccn1.O=C(O)/C=C\C(=O)O (configuration not stated) [Chlorpheniramine Maleate] | 1.12 | 1.05 | 1.03 | 1.04 | 1.03 | 1.01
CN1CCC(=C2c3ccccc3CC(=O)c3sccc32)CC1.O=C(O)/C=C/C(=O)O [Ketotifen Fumarate] | 1.07 | 1.02 | 0.939 | 1 | 1.1 | 1.01
O=C1CCc2ccc(OCCCCN3CCN(c4cccc(Cl)c4Cl)CC3)cc2N1 [Aripiprazole] | 0.955 | 0.924 | 0.988 | 0.863 | 0.996 | 0.971
CC(CCc1ccccc1)NCC(O)c1ccc(O)c(C(N)=O)c1.Cl (configuration not stated) [Labetalol HCl] | 1.07 | 1.1 | 1.06 | 1.04 | 1.06 | 1.01
Cc1cccc(C(C)c2c[nH]cn2)c1C (configuration not stated) [Dexmedetomidine] | 1.1 | 1.04 | 1.04 | 1.02 | 1.04 | 1.04
CC(=O)NCCCS(=O)(=O)[O-].CC(=O)NCCCS(=O)(=O)[O-].[Ca+2] [Acamprosate calcium] | 1.01 | 1.01 | 0.995 | 1 | 1.03 | 1.01
CN1CCCCC1Cn1cc(C(=O)c2cc([N+](=O)[O-])ccc2I)c2ccccc21 (configuration not stated) [AM1241] | 1 | 0.977 | 0.987 | 0.972 | 1.02 | 0.998
Cc1nccn1CC1CCc2c(c3ccccc3n2C)C1=O.[Cl-].[H+] (configuration not stated) [Ondansetron HCl] | 1.08 | 1.05 | 1.03 | 1.02 | 1.02 | 1.03
Cl.NC12CC3CC(CC(C3)C1)C2 [Amantadine HCl] | 1.08 | 1.05 | 1.03 | 1.02 | 1.05 | 1.05
CC(NC(C)(C)C)C(=O)c1cccc(Cl)c1 (configuration not stated) [Amfebutamone HCl] | 1.03 | 1.02 | 0.987 | 1.01 | 1.03 | 1.01
CN1CCN2c3ccccc3Cc3ccccc3C2C1.[Cl-].[H+] (configuration not stated) [Mianserin HCl] | 1.12 | 1.07 | 1.03 | 1.06 | 1.09 | 1.02
COc1cc2nc(N3CCN(C(=O)C4COc5ccccc5O4)CC3)nc(N)c2cc1OC.CS(=O)(=O)O (configuration not stated) [Doxazosin Mesylate] | 1.07 | 0.991 | 0.99 | 0.966 | 1.03 | 0.958
CNCCCC12CCC(c3ccccc31)c1ccccc12.[Cl-].[H+] [Maprotiline HCl] | 1.02 | 0.984 | 0.967 | 0.96 | 1.02 | 0.982
CC(C)(C(=O)O)c1ccc(C(O)CCCN2CCC(C(O)(c3ccccc3)c3ccccc3)CC2)cc1.[Cl-].[H+] (configuration not stated) [Fexofenadine HCl] | 1.01 | 1.03 | 1 | 1.03 | 1.01 | 1.03
CN/C(=C\[N+](=O)[O-])NCCSCc1csc(CN(C)C)n1 [Nizatidine] | 1.07 | 1.05 | 1.02 | 1.04 | 1.05 | 1
NCCc1ccc(O)c(O)c1.[Cl-].[H+] [Dopamine HCl] | 1.11 | 1.04 | 1.02 | 1.03 | 1.07 | 1.02
Cc1ccc(/C(=C\CN2CCCC2)c2ccccn2)cc1.Cl [trans-Triprolidine hydrochloride] | 1.05 | 1.03 | 1.03 | 1.03 | 1.05 | 1.03
Oc1c(Cl)cc(Cl)cc1Sc1cc(Cl)cc(Cl)c1O [Bithionol] | 1.06 | 0.999 | 1.03 | 0.985 | 1.02 | 1.01
CC1CCN(CCC2CCCN2S(=O)(=O)c2cccc(O)c2)CC1.Cl (configuration not stated) | 1.06 | 1.04 | 1.02 | 1.02 | 1.05 | 1
CCN(Cc1ccncc1)C(=O)C(CO)c1ccccc1 (configuration not stated) [Tropicamide] | 1.09 | 1.05 | 1.02 | 1.01 | 1.07 | 1.01
Cc1ccc(O)c([C@H](CCN(C(C)C)C(C)C)c2ccccc2)c1.O=C(O)[C@H](O)[C@@H](O)C(=O)O [Tolterodine tartrate] | 1.12 | 1.04 | 1.03 | 1.04 | 1.06 | 0.972
O=c1[nH]c2ccccc2n1C1CCN(CCCC(c2ccc(F)cc2)c2ccc(F)cc2)CC1 [Pimozide] | 0.991 | 0.974 | 0.991 | 0.959 | 1.01 | 0.972
Clc1ccc2c(c1)CCc1cccnc1C2=C1CCNCC1 [Desloratadine] | 1.07 | 0.984 | 1 | 0.988 | 1.03 | 0.998
